Experimental data taken from article PMC6061170, “Synthesis and biological investigations of 3β-aminotropane arylamide derivatives with atypical antipsychotic profile” (Medicinal Chemistry Research, 2018).
Structures can show the parent of a compound that is named as a salt. Where two headings read alike, the source gives them in different places.

Key:
[1] = molecular target: T1, serotonin 5-HT1A receptors (Rattus norvegicus, UniProt P19327); assay: Radioligand binding assay, 5-HT1A receptors
T1 construct: from tissue; host or cells: rat brain tissues
T1 sequence (P19327 1-422): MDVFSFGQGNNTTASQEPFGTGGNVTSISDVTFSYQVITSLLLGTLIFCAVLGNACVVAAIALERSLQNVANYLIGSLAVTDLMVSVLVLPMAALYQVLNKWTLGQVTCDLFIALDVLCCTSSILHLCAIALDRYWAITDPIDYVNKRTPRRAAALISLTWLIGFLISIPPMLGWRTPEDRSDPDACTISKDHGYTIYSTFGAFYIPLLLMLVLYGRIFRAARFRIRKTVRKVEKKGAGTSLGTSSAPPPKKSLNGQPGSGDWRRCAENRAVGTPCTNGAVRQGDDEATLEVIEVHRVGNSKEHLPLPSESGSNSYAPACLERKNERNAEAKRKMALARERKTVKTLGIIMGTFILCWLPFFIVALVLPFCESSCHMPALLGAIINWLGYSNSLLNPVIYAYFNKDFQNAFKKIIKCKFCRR
Experimental: All compounds were tested for their affinities for 5-HT1A, 5-HT2A, and D2 receptors according to previously described procedures (Stefanowicz et al. [2016]).
Competition binding studies were performed according to a previously described procedure in rat brain tissues (Stefanowicz et al. [2016]).

[2] = molecular target: dopamine D2 receptors (Rattus norvegicus, UniProt P61169); assay: Radioligand binding assay, D2 receptors
[3] = molecular target: T2, serotonin 5-HT2A receptors (Rattus norvegicus, UniProt P14842); assay: Radioligand binding assay, 5-HT2A receptors
T2 construct: from tissue; host or cells: rat brain tissues

[4] = system: Albino Swiss mice; assay: Four-plate test
[5] = system: Albino Swiss mice; assay: Forced swim test; details: last 4 min of session
[6] = rat brain tissues, read-out: 5-HT1A IC50 [nM] ± SEM
[7] = rat brain tissues, read-out: D2 IC50 [nM] ± SEM
[8] = rat brain tissues, read-out: 5-HT2A IC50 [nM] ± SEM
[9] = rat brain tissues, read-out: 5-HT2A Ki [nM] ± SEM
[10] = rat brain tissues, read-out: D2 Ki [nM] ± SEM
[11] = rat brain tissues, read-out: 5-HT1A Ki [nM] ± SEM
[12] = 2.5 mg/kg i.p. 30 min before test
[13] = 5 mg/kg i.p. 30 min before test
[14] = 1.25 mg/kg i.p. 30 min before test

Chain of dopamine D2 receptors (P61169 1-415 isoform P61169-2): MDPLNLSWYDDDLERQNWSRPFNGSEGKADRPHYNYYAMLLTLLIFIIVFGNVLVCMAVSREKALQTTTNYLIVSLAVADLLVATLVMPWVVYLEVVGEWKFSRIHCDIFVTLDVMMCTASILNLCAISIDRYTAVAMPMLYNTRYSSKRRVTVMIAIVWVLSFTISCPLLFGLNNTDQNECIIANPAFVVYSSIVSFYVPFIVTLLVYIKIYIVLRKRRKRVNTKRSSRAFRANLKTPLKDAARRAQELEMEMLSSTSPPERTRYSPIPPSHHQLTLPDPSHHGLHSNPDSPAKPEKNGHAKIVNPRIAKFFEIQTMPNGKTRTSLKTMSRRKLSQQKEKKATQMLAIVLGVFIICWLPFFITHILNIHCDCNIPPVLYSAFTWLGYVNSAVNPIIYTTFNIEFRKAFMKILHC
T2 sequence (P14842 whole entry): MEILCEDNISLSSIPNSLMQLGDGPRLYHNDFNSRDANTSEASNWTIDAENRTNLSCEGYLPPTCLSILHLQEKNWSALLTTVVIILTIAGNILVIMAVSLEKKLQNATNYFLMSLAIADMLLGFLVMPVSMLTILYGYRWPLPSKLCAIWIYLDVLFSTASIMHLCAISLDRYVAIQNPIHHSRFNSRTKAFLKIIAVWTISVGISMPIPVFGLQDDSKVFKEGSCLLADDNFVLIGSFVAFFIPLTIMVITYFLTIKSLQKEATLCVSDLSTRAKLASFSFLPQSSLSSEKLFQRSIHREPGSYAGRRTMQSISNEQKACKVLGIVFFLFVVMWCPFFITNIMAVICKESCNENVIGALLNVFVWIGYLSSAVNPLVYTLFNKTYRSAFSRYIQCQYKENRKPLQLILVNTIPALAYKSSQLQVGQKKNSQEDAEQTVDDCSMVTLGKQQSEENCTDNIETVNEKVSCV

SMILES | melting point | Ki [1] | IC50 [1, 6] | Ki [2] | IC50 [2, 7] | IC50 [3, 8] | Ki [3, 9] | Ki [2, 10] | Ki [1, 11] | further results
Cc1ccc(CN2C3CCC2CC(NC(=O)c2ccc4ccccc4n2)C3)cc1 (stereo not drawn) (as salt: oxalate) [Compound 12i, N-[8-(4-methylbenzyl)-8-azabicyclo[3.2.1]oct-3β-yl)]-quinoline-2-carboxamide oxalate] | 215 to 215.4 °C |  |  |  |  |  |  |  |  | 
Cc1ccccc1CN1C2CCC1CC(NC(=O)c1ccc3ccccc3n1)C2 (stereo not drawn) [Compound 12a] | 120.8 to 121.4 °C | 46.6 ± 2.2 nM | 140 ± 6.7 nM | 52 ± 4 nM | 263 ± 20.5 nM | > 10000 nM | > 10000 nM |  |  | 
Cc1ccccc1CN1C2CCC1CC(NC(=O)c1cnc3ccccc3c1)C2 (stereo not drawn) [Compound 12b] | 179.2 to 180.2 °C | 81.5 ± 5 nM | 244 ± 14.9 nM |  | 1630 ± 23 nM | 3780 ± 348 nM | 1030 ± 94 nM | 326 ± 4.5 nM |  | 
Cc1ccccc1CN1C2CCC1CC(NC(=O)c1ccc3ncccc3c1)C2 (stereo not drawn) [Compound 12c] | 211.4 to 212.7 °C |  | 1350 ± 159 nM |  | 1270 ± 63 nM | > 10000 nM | > 10000 nM | 254 ± 12.8 nM | 450 ± 53 nM | 
COc1cc(C(=O)NC2CC3CCC(C2)N3Cc2ccccc2C)nc2ccccc12 (stereo not drawn) [Compound 12d] | 54.5 to 55.9 °C | 34 ± 1.7 nM | 102 ± 4.9 nM |  | > 10000 nM | > 10000 nM | > 10000 nM | > 10000 nM |  | Number of punished crossings /1 min Mean ± SEM [4, 12]: 3.3 ± 0.3 crossings/1 min; Number of punished crossings /1 min Mean ± SEM [4, 13]: 4.8 ± 0.3 crossings/1 min; Number of punished crossings /1 min Mean ± SEM ([4]; 10 mg/kg i.p. 30 min before test): 4.7 ± 0.8 F(3,36) = 3.1652; p < 0.05 crossings/1 min; Immobility time (s) Mean ± SEM [5, 14]: 144.22 ± 14.5 s; Immobility time (s) Mean ± SEM [5, 12]: 113.44 ± 14.9 s; Immobility time (s) Mean ± SEM [5, 13]: 150.8 ± 11.4 F(3,32) = 5.5680; NS s
Cc1cccc(CN2C3CCC2CC(NC(=O)c2cnc4ccccc4c2)C3)c1 (stereo not drawn) [Compound 12f] | 194 to 194.7 °C | 84.5 ± 3.4 nM | 255 ± 9.6 nM |  | 2730 ± 202 nM | 5290 ± 148 nM | 1440 ± 40.5 nM | 546 ± 40.2 nM |  | 
Cc1cccc(CN2C3CCC2CC(NC(=O)c2ccc4ncccc4c2)C3)c1 (stereo not drawn) [Compound 12g] | 174.4 to 175.5 °C |  | 867 ± 29.7 nM |  | 1370 ± 81.8 nM | > 10000 nM | > 10000 nM | 275 ± 16.5 nM | 289 ± 9.9 nM | 
COc1cc(C(=O)NC2CC3CCC(C2)N3Cc2cccc(C)c2)nc2ccccc12 (stereo not drawn) [Compound 12h] | 116.1 to 118.3 °C | 21 ± 2 nM |  |  | 2510 ± 271 nM | > 10000 nM | > 10000 nM | 503 ± 54.5 nM |  | IC50 [1]: 62.8 ± 6.2 nM; Number of punished crossings /1 min Mean ± SEM [4, 14]: 5.3 ± 0.3; p < 0.001 crossings/1 min; Number of punished crossings /1 min Mean ± SEM [4, 12]: 5.5 ± 0.5; p < 0.001 crossings/1 min; Number of punished crossings /1 min Mean ± SEM [4, 13]: 2.9 ± 0.3 F(3,36) = 17.202; p < 0.00001 crossings/1 min; increase of punished crossings vs. respective control group ([4]; 1.25 and 2.5 mg/kg i.p.): ~60%; Immobility time (s) Mean ± SEM ([5]; 0.625 mg/kg i.p. 30 min before test): 163.29 ± 10.7 s; Immobility time (s) Mean ± SEM [5, 14]: 134.78 ± 12.9 s; Immobility time (s) Mean ± SEM [5, 12]: 185.00 ± 15.0 F(3,30) = 3.5680; p < 0.05 s
Cc1ccc(CN2C3CCC2CC(NC(=O)c2cnc4ccccc4c2)C3)cc1 (stereo not drawn) [Compound 12j] | 219.5 to 220.8 °C |  | 493 ± 44.5 nM | 45.3 ± 7.5 nM | 227 ± 37.6 nM | > 10000 nM | > 10000 nM |  | 164 ± 15 nM | 
Cc1ccc(CN2C3CCC2CC(NC(=O)c2ccc4ncccc4c2)C3)cc1 (stereo not drawn) [Compound 12k] | 211.9 to 213 °C |  | 1530 ± 58 nM | 34.2 ± 0.8 nM | 172 ± 5 nM | > 10000 nM | > 10000 nM |  | 511 ± 19 nM | 
O=C(NC1CC2CCC(C1)N2Cc1ccccn1)c1ccc2ccccc2n1 (stereo not drawn) [Compound 12l] | 150.2 to 151 °C |  | 665 ± 14.3 nM |  | 3080 ± 350 nM | > 10000 nM | > 10000 nM | 616 ± 70.3 nM | 221 ± 4.7 nM | 
O=C(NC1CC2CCC(C1)N2Cc1ccccn1)c1cnc2ccccc2c1 (stereo not drawn) [Compound 12m] | 169.4 to 170.5 °C |  | 850 ± 135 nM |  | > 10000 nM | > 10000 nM | > 10000 nM | > 10000 nM | 283 ± 45 nM | 
O=C(NC1CC2CCC(C1)N2Cc1ccccn1)c1ccc2ncccc2c1 (stereo not drawn) [Compound 12n] | 193.7 to 194.5 °C | > 10000 nM |  | > 10000 nM |  |  |  |  |  | IC50 [1]: > 10000 nM; IC50 [2]: > 10000 nM; IC50 [3]: > 10000 nM; Ki [3]: > 10000 nM
COc1cc(C(=O)NC2CC3CCC(C2)N3Cc2ccccn2)nc2ccccc12 (stereo not drawn) [Compound 12o] | 132.5 to 133 °C |  | 453 ± 12.6 nM |  | > 10000 nM | > 10000 nM | > 10000 nM | > 10000 nM | 151 ± 4.1 nM | 
O=C(NC1CC2CCC(C1)N2Cc1cccnc1)c1ccc2ccccc2n1 (stereo not drawn) [Compound 12p] | 143 to 143.4 °C |  | 3250 ± 122 nM |  | 5440 ± 1030 nM | > 10000 nM | > 10000 nM | 1090 ± 205 nM | 1080 ± 40.5 nM | 
O=C(NC1CC2CCC(C1)N2Cc1cccnc1)c1cnc2ccccc2c1 (stereo not drawn) [Compound 12q] | 138.3 to 146.2 °C | > 10000 nM |  | > 10000 nM |  |  |  |  |  | IC50 [1]: > 10000 nM; IC50 [2]: > 10000 nM; IC50 [3]: > 10000 nM; Ki [3]: > 10000 nM
O=C(NC1CC2CCC(C1)N2Cc1cccnc1)c1ccc2ncccc2c1 (stereo not drawn) [Compound 12r] | 158.3 to 162.5 °C | > 10000 nM |  | > 10000 nM |  |  |  |  |  | IC50 [1]: > 10000 nM; IC50 [2]: > 10000 nM; IC50 [3]: > 10000 nM; Ki [3]: > 10000 nM
COc1cc(C(=O)NC2CC3CCC(C2)N3Cc2cccnc2)nc2ccccc12 (stereo not drawn) [Compound 12s] | 162.6 to 165.5 °C |  | 3750 ± 264 nM |  | > 10000 nM | > 10000 nM | > 10000 nM | > 10000 nM | 1250 ± 88 nM | 
O=C(NC1CC2CCC(C1)N2Cc1ccncc1)c1ccc2ccccc2n1 (stereo not drawn) [Compound 12t] | 143 to 145.7 °C |  | 2430 ± 31 nM |  | > 10000 nM | > 10000 nM | > 10000 nM | > 10000 nM | 809 ± 10.5 nM | 
O=C(NC1CC2CCC(C1)N2Cc1ccncc1)c1cnc2ccccc2c1 (stereo not drawn) [Compound 12u] | 69.5 to 72 °C | > 10000 nM |  | > 10000 nM |  |  |  |  |  | IC50 [1]: > 10000 nM; IC50 [2]: > 10000 nM; IC50 [3]: 4528 ± 22.5 nM; Ki [3]: 1229 ± 6 nM
O=C(NC1CC2CCC(C1)N2Cc1ccncc1)c1ccc2ncccc2c1 (stereo not drawn) [Compound 12v] | 182 to 183.3 °C | > 10000 nM |  | > 10000 nM |  |  |  |  |  | IC50 [1]: > 10000 nM; IC50 [2]: > 10000 nM; IC50 [3]: > 10000 nM; Ki [3]: > 10000 nM
COc1cc(C(=O)NC2CC3CCC(C2)N3Cc2ccncc2)nc2ccccc12 (stereo not drawn) [Compound 12w] | 52 to 55 °C |  | 942 ± 52.9 nM |  | > 10000 nM | > 10000 nM | > 10000 nM | > 10000 nM | 314 ± 18 nM | 
Nc1cccc(CN2C3CCC2CC(NC(=O)c2ccc4ccccc4c2)C3)c1 (stereo not drawn) [Compound 19b] | 165.4 to 166.6 °C |  | 862 ± 49.5 nM |  | 1560 ± 19.9 nM | 766 ± 48.4 nM | 208 ± 13.2 nM | 312 ± 3.9 nM | 286 ± 16.4 nM | 
Nc1ccc(CN2C3CCC2CC(NC(=O)c2ccc4ccccc4c2)C3)cc1 (stereo not drawn) [Compound 19c] | 201.6 to 208.8 °C |  | 4040 ± 469 nM |  | 682 ± 42.7 nM | 4580 ± 199 nM | 1240 ± 54 nM | 136 ± 8.5 nM | 1340 ± 156 nM | 
CN1C(=O)CN=C(c2ccccc2)c2cc(Cl)ccc21 [Diazepam, reference compound] |  |  |  |  |  |  |  |  |  | Number of punished crossings /1 min Mean ± SEM ([4]; diazepam 1.25 mg/kg, 60 min before test): 5.8 ± 0.3; p < 0.01 crossings/1 min; Number of punished crossings /1 min Mean ± SEM ([4]; diazepam 2.5 mg/kg, 60 min before test): 6.4 ± 0.5; p < 0.01 crossings/1 min; Number of punished crossings /1 min Mean ± SEM ([4]; diazepam 5 mg/kg, 60 min before test): 6.6 ± 0.4; p < 0.05 F(3,36) = 6.455; p < 0.01 crossings/1 min
CN(C)CCCN1c2ccccc2CCc2ccccc21 [Imipramine, reference compound] |  |  |  |  |  |  |  |  |  | Immobility time (s) Mean ± SEM [5, 13]: 170.42 ± 10.9 s; Immobility time (s) Mean ± SEM ([5]; 20 mg/kg i.p. 30 min before test): 77.81 ± 12.2; p < 0.001 F(3,36) = 16.7570; p < 0.0001 s
